Assay results reported in patent US20250281453A1, “COMBINATION THERAPIES COMPRISING QTX125” (QUIMATRYX, S.L., priority 2022, published 2025).

Experiments:
Type in all cases: cell-based
[1] = system: Hep-G2 hepatic cancer cells; assay: Cell viability, ALAMAR blue assay, monotherapy; conditions: for EC50: HepG2, 72 h, read-out: EC50 dose of monotherapy; for percentage (%) cell viabilities: 72 hours of high-dose monotherapy (Table 2: QTX125 5, sorafenib 100, gemcitabine 100, bortezomib 1 μM)
Protocol: (§1) In brief, HCT-116, MiaPaCa-2 and Panc-1 cells were thawed in high glucose DMEM (Sigma D5796) with 10% heat-inactivated Foetal Calf Serum (FCS) (PAA, A15-101)). Hep-G2 and SK-Hep1 cells were thawed in Minimum Essential Media (MEM) (Sigma M2279) with 1% non-essential amino acids (Sigma M7145), 2 mM Glutamine (Sigma G7513) and 10% FCS. SK-OV-3 cells were thawed in McCoy's 5A medium (Sigma, M8403) with 15% FCS. All cells were passaged by washing once in cation-free dPBS (Sigma, D1408), and incubated for 3 minutes with trypsin ([0.5 μg/ml]/EDTA [0.2 μg/ml] (Sigma, T4174) in dPBS). Passage was completed at 37° C., and cells were transferred to the appropriate media. Prior to seeding at defined cell density, cells were recovered in medium, centrifuged and resuspended for counting.
(§2) To prepare cells for viability assays, cells were transferred into 96 well tissue culture plates (Cultek), and resuspended in 100 µL at the following densities: 10,000 cells/well (Hep-G2 and MiaPaCa-2), 5000 cells/well (Panc-1 and SK-OV-3) or 3000 cells/well (HCT-116). Following 24 hours of incubation, media was removed and replaced with 100 µL media spiked with QTX125 and the test chemotherapeutic agents. Stock solutions for the agents used in this study are shown below in Table 1. Cells were incubated for a further 72 hours before cell viability was assessed using both ALAMAR® and hexosaminidase assays.
(§3) For the ALAMAR® blue assay, media containing QTX125 and the test chemotherapeutic agents was removed, and cells were stained using ALAMAR® blue (BioSource DAL 1100) for 4 hours at 37° C., following the manufacturer's instructions. Relative fluorescent intensity was measured using a Cytofluor® plate reader (Millipore) at 535/590 nm (Excitation/emission). This measure directly correlates with the number of viable cells present in each well.
(§4) A number of appropriate control samples were included. First, absorbance values measured in reagent ‘blank’ wells (containing cell culture medium and colorimetric agent only) were subtracted from ‘test’ sample-containing wells. ‘Blank’ absorbance values were routinely between 5 and 10% of the values recorded in test wells. Absorbance values recorded in test wells were then compared against wells containing (i) cells stimulated with QTX125 only; (ii) cells stimulated with sorafenib, gemcitabine or bortezomib only and/or (iii) unstimulated cells, as appropriate.
(§5) Control values were normalised to 100% and percentage (%) viability was calculated. Data were used to plot log dose-response curves using a sigmoid dose-response (variable slope) equation. EC50 values were obtained using Equation 1, where ‘X’ is the logarithmic concentration; ‘Y’ is the response output and it is assumed that Y starts at bottom of the graph and reaches the top with an overall sigmoid shape.
(§6) Prior to assessing the oncolytic efficacy of QTX125-containing combination therapies, the oncolytic effect of each test agent was assessed in isolation. Dose-response curves were produced by serial dilution (1:1), thereby allowing monotherapy EC50 values to be calculated.
(§7) Chemotherapeutic agents were added to wells at a starting concentration of 100 μM. However, it was quickly determined that it was not possible to use this range for all chemotherapeutic agents tested. An optimization study was therefore completed to identify suitable maximum (‘high’) doses for each agent and in each individual cell line.

[2] = system: Panc-1 pancreatic cancer cells; assay: Cell viability, ALAMAR blue assay, monotherapy; conditions: for EC50: 72 h, read-out: EC50 dose of monotherapy
Protocol: as §1, §2, §3, §4, §5, §6, §7

[3] = system: MiaPaCa-2 pancreatic cancer cells; assay: Cell viability, ALAMAR blue assay, monotherapy; conditions: for EC50: MIA PaCa-2, 72 h, 72 h, read-out: EC50 dose of monotherapy; for percentage (%) cell viabilities: 72 hours of high-dose monotherapy (Table 2: QTX125 100, sorafenib 100, gemcitabine 100, bortezomib 1 μM)
Protocol: as §1, §2, §3, §4, §5, §6, §7

[4] = system: SK-OV-3 ovarian cancer cells; assay: Cell viability, ALAMAR blue assay, monotherapy; conditions: for EC50: 72 h, read-out: EC50 dose of monotherapy
Protocol: as §1, §2, §3, §4, §5, §6, §7

[5] = system: HCT-116 colonic cancer cells; assay: Cell viability, ALAMAR blue assay, monotherapy; conditions: for EC50: 72 h, read-out: EC50 dose of monotherapy
Protocol: as §1, §2, §3, §4, §5, §6, §7

[6] = system: Hep-G2 hepatic cancer cells; assay: Cell viability, hexosaminidase assay, monotherapy; conditions: for EC50: HepG2, 72 h, read-out: EC50 dose of monotherapy; for percentage (%) cell viabilities: 72 hours of high-dose monotherapy (Table 2: QTX125 5, sorafenib 100, gemcitabine 100, bortezomib 1 μM)
Protocol: as §1, §2
(§8) For the hexosaminidase assay, media containing QTX125 and the test chemotherapeutic agents was removed, and cells were washed once with PBS. 60 μL of substrate solution (containing: 7.5 mM p-nitrophenol-N-acetyl-beta-D-glucosamide [Sigma N-9376], 0.1 M sodium citrate, pH 5.0 and 0.25% Triton X-100) was added to each well and cells were incubated at 37° C. for at least 1 hour. Incubating cells in this manner causes the substrate solution to become bright yellow, at which point 90 μL of developer solution (containing 50 mM Glycine pH 10.4 and 5 mM EDTA) was added to each well. Absorbance at 410 nm was recorded using a plate reader.
as §4, §5, §6, §7

[7] = system: Panc-1 pancreatic cancer cells; assay: Cell viability, hexosaminidase assay, monotherapy; conditions: for EC50: read-out: EC50 dose of monotherapy
Protocol: as §1, §2, §8, §4, §5, §6, §7

[8] = system: MiaPaCa-2 pancreatic cancer cells; assay: Cell viability, hexosaminidase assay, monotherapy; conditions: for EC50: MIA PaCa-2, 72 h, read-out: EC50 dose of monotherapy; for percentage (%) cell viabilities: 72 hours of high-dose monotherapy (Table 2: QTX125 100, sorafenib 100, gemcitabine 100, bortezomib 1 μM)
Protocol: as §1, §2, §8, §4, §5, §6, §7

[9] = system: SK-OV-3 ovarian cancer cells; assay: Cell viability, hexosaminidase assay, monotherapy; conditions: for EC50: read-out: EC50 dose of monotherapy
Protocol: as §1, §2, §8, §4, §5, §6, §7

[10] = system: HCT-116 colonic cancer cells; assay: Cell viability, hexosaminidase assay, monotherapy; conditions: for EC50: read-out: EC50 dose of monotherapy
Protocol: as §1, §2, §8, §4, §5, §6, §7

[11] = Homo sapiens, HepG2, 72 hours of high-dose monotherapy (Table 2: QTX125 5, sorafenib 100, gemcitabine 100, bortezomib 1 μM), read-out: percentage (%) cell viabilities
[12] = Homo sapiens, 72 hours of high-dose monotherapy (Table 2: QTX125 100, sorafenib 100, gemcitabine 100, bortezomib 1 μM), read-out: percentage (%) cell viabilities
[13] = Homo sapiens, MIA PaCa-2, 72 hours of high-dose monotherapy (Table 2: QTX125 100, sorafenib 100, gemcitabine 100, bortezomib 1 μM), read-out: percentage (%) cell viabilities
[14] = Homo sapiens, 72 hours of high-dose monotherapy (Table 2: QTX125 10, sorafenib 100, gemcitabine 10, bortezomib 1 μM), read-out: percentage (%) cell viabilities
[15] = Homo sapiens, 72 hours of high-dose monotherapy (Table 2: QTX125 1, sorafenib 100, gemcitabine 10, bortezomib 1 μM), read-out: percentage (%) cell viabilities
[16] = high-dose monotherapy, 72 hours
[17] = 72 hours of high-dose monotherapy (Table 2: QTX125 100, sorafenib 100, gemcitabine 100, bortezomib 1 μM)
[18] = 72 hours of high-dose monotherapy (Table 2: QTX125 10, sorafenib 100, gemcitabine 10, bortezomib 1 μM)
[19] = 72 hours of high-dose monotherapy (Table 2: QTX125 1, sorafenib 100, gemcitabine 10, bortezomib 1 μM)

CC(C)C[C@H](NC(=O)[C@H](Cc1ccccc1)NC(=O)c1cnccn1)B(O)O [bortezomib]
EC50 ([1]; Homo sapiens): 16 ± 0.7 nM
viability at 1 µM [1, 11]: 0%
EC50 ([2]; Homo sapiens): 6.2 nM
viability at 1 µM [2, 12]: 0%
EC50 ([3]; Homo sapiens): 13 ± 0.5 nM
viability at 1 µM [3, 13]: 0%
EC50 ([4]; Homo sapiens): 7 ± 1 nM
viability at 1 µM [4, 14]: 0%
EC50 ([5]; Homo sapiens): 7.9 ± 0.4 nM
viability at 1 µM [5, 15]: 0%
EC50 ([6]; Homo sapiens): 16 ± 1 nM
viability at 1 µM [6, 11]: 8.8%
EC50 ([7]; Homo sapiens, 72 h): 9.3 ± 0.8 nM
viability at 1 µM [7, 12]: 3%
reduction of the population of viable cells [7, 16]: 97%
EC50 ([8]; Homo sapiens): 8.6 ± 0.5 nM
viability at 1 µM [8, 13]: 4.1%
EC50 ([9]; Homo sapiens, 72 h): 6.8 ± 0.4 nM
viability at 1 µM [9, 14]: 9.3%
EC50 ([10]; Homo sapiens, 72 h): 6.6 ± 0.5 nM
viability at 1 µM [10, 15]: 4.9%

Nc1ccn([C@@H]2O[C@H](CO)[C@@H](O)C2(F)F)c(=O)n1 [gemcitabine]
percentage (%) cell viabilities [1]: 24%
percentage (%) cell viabilities [2, 17]: 8.5%
percentage (%) cell viabilities [3]: 24%
EC50 ([3]; Homo sapiens): 26 nM
percentage (%) cell viabilities [4, 18]: 38%
percentage (%) cell viabilities [5, 19]: 1.9%
reduction of the population of viable cells [5, 16]: more than 98%
EC50 dose of monotherapy ([6]; 72 h): resistant
percentage (%) cell viabilities [6]: 54%
EC50 dose of monotherapy ([7]; 72 h): resistant
percentage (%) cell viabilities [7, 17]: 62%
percentage (%) cell viabilities [8]: 47%
EC50 ([8]; Homo sapiens): 33 nM
EC50 dose of monotherapy ([9]; 72 h): resistant
percentage (%) cell viabilities [9, 18]: 50%
EC50 dose of monotherapy ([10]; 72 h): resistant
percentage (%) cell viabilities [10, 19]: 20%

CNC(=O)c1cc(Oc2ccc(NC(=O)Nc3ccc(Cl)c(C(F)(F)F)c3)cc2)ccn1 [sorafenib]
percentage (%) cell viabilities [1]: 0.0%
EC50 ([1]; Homo sapiens): 620 ± 160 nM
percentage (%) cell viabilities [2, 17]: 0.0%
EC50 ([2]; Homo sapiens): 7200 ± 800 nM
percentage (%) cell viabilities [3]: 0.0%
percentage (%) cell viabilities [4, 18]: 0.0%
EC50 ([4]; Homo sapiens): 17000 ± 2800 nM
percentage (%) cell viabilities [5, 19]: 0.0%
EC50 ([5]; Homo sapiens): 4000 ± 600 nM
percentage (%) cell viabilities [6]: 1.8%
EC50 ([6]; Homo sapiens): 2700 nM
reduction of the population of viable cells [6, 16]: more than 98%
percentage (%) cell viabilities [7, 17]: 4.4%
EC50 ([7]; Homo sapiens, 72 h): 7400 ± 1000 nM
percentage (%) cell viabilities [8]: 4.7%
EC50 ([8]; Homo sapiens): 6800 ± 900 nM
percentage (%) cell viabilities [9, 18]: 2.3%
EC50 ([9]; Homo sapiens, 72 h): 12700 ± 1700 nM
percentage (%) cell viabilities [10, 19]: 2.4%
EC50 ([10]; Homo sapiens, 72 h): 3600 ± 500 nM
